Experimental data published in patent US7829714B2, “Method for measuring aromatase activity” (GE Healthcare Limited, priority 2003, dated 2010).
Where two headings read alike, the source gives them in different places.

Biological target: T1, CYP19 (aromatase) containing microsomes (Homo sapiens, UniProt P11511)
T1 sequence (P11511 1-503): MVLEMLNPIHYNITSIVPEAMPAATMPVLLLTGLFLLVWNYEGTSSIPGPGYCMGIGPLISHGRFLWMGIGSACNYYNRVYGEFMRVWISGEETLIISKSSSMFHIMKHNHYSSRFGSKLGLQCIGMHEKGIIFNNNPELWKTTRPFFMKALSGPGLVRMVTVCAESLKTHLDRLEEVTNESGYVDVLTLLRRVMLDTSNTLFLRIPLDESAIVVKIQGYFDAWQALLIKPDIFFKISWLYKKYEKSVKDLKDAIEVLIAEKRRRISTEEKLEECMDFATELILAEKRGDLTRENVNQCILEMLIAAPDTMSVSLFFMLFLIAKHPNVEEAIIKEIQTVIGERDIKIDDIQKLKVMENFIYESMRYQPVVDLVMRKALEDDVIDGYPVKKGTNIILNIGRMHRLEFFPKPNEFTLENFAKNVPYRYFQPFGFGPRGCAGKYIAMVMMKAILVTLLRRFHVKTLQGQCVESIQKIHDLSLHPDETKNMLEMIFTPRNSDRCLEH
Conditions: for change in intensity relative to the control: 20 μl of CYP19 aromatase preparation (FIG. 5); for decrease in intensity relative to the control reaction: 2 μM substrate, 1 mM NADPH
Method: NADPH was prepared to a final concentration of 1 mM in 100 mM disodium hydrogen phosphate buffer pH7.4.
100 μl of this reagent was dispensed in to replicate wells of a 96 well microtitre plate. To each well was dispensed 20 μl-30 μl of either the CYP19 (aromatase) containing microsomes or control microsomes (no CYP19). All microsomes were adjusted to the same protein concentration with assay buffer. The plates were incubated at 37° C. for 1 hour and then fluorescence intensity measurements were recorded on the Envision Plate Reader (Perkin Elmer, US), excitation 405 nm/emission BFP450 nm.

| SMILES | fluorescence intensity, aromatase microsomes compared to control microsome preparation | change in intensity relative to the control [%] | decrease in intensity relative to the control reaction (300 of microsome preparation, 37° C. for 1 hour (FIG. 3)) [%] | decrease in fluorescence (in the absence of additional co-factor (NADPH) (FIG. 4)) [%] | decrease in fluorescence (in the presence of additional NADPH (FIG. 4)) [%] | decrease in intensity relative to the control reaction (microsome volume of 200, 37° C. for 1 hour, excitation 405 nm/emission 450 nm (FIG. 3)) [%] |
| --- | --- | --- | --- | --- | --- | --- |
| C[C@]12CCC(=O)C=C1CC[C@@H]1[C@@H]2CC[C@]2(C)C(C(=O)NCCNC(=O)CCCCCn3c4ccccc4c(=O)c4ccccc43)CC[C@@H]12 (stereo partly shown) [Formula XX, 3-oxo-N-(2-{[6-(9-oxoacridin-10(9H)-yl)hexanoyl]amino}ethyl)androst-4-ene-17-carboxamide] | greater decrease in fluorescence intensity | 17.5 | 24.2 | 16 | 24 | 17.5 |
| O=C(O)CCCCCn1c2ccccc2c(=O)c2ccccc21 [compound XVII, 6-(9-oxoacridin-10(9H)-yl)hexanoic acid, reference compound] |  | 5 |  |  |  |  |
